From patent publication US10295552B2, “Method for diagnosis of primary hyperaldosteronism” (ATTOQUANT D[…], priority 2013, dated 2019)

Tests used:
[1] = test system: aldosterone-to-angiotensin II ratio (AA2R); assay: Aldosterone-to-angiotensin II ratio (AA2R) before and 4 h after a single dose of a RAS blocker; format: in vivo, human; conditions: 5 healthy volunteers, 4 h post administration vs predose, heparin plasma equilibrated 60 min at 37° C.
Protocol: (§1) FIG. 5: Comparison of the impact of RAS blocker administration on the ARR (upper panel) and the AA2R (lower panel). Plasma samples were collected from healthy volunteers before (Predose) and 4 h post administration of a single dose of an ACE inhibitor (left), renin inhibitor (middle) or angiotensin receptor blocker (ARB, right). Plasma aldosterone concentration, equilibrium angiotensin II concentration and active renin concentration were measured and the ARR and the AA2R was calculated for each sample. For calculation of the ARR, aldosterone concentrations in ng/L were divided by the plasma active renin concentration in ng/L. For calculation of the AA2R, aldosterone concentrations in pmol/L were divided by Ang II concentrations in pmol/L. Mean values of 5 healthy volunteers+/−SEM are shown in the graphs.
Single doses of three different anti-hypertensive drugs were administered to 5 healthy volunteers on 3 different treatment days separated by one week. […]
Equilibrium Ang II levels were determined by quantification of the steady-state angiotensin peptide levels in equilibrated heparin plasma samples. […] Following equilibration, plasma angiotensin peptide levels were stabilized by the addition of protease inhibitors and equilibrium peptide levels were subsequently quantified by mass spectrometry. […] Two different mass transitions were measured per analyte and standard and the concentrations were calculated by relating endogenous signals to internal standard signals under consideration of the corresponding response factors determined by calibration curves in human blank plasma.
StSable isotope-labeled aldosterone was added to the stabilized plasma samples at a concentration of 500 pg/ml for internal standardization. […] Two different mass transitions were measured per analyte and standard and the concentrations were calculated by relating endogenous signals to internal standard signals under consideration of the corresponding response factors determined by calibration curves in human blank plasma.

[2] = test system: aldosterone-to-renin ratio (ARR); assay: Aldosterone-to-renin ratio (ARR) before and 4 h after a single dose of a RAS blocker; format: in vivo, human; conditions: 5 healthy volunteers, 4 h post administration vs predose
Protocol: as §1
Single doses of three different anti-hypertensive drugs were administered to 5 healthy volunteers on 3 different treatment days separated by one week. 4 h following administration of a single dose of 10 mg Enalapril (ACE-Inhibitor), 50 mg Losartan (ARB) or 150 mg Aliskiren (Renin-Inhibitor), heparin blood was collected by venous puncture and plasma was separated by centrifugation. Samples were frozen at −80° C. till analysis.
StSable isotope-labeled aldosterone was added to the stabilized plasma samples at a concentration of 500 pg/ml for internal standardization. Following C18-based solid-phase-extraction, samples were subjected to mass spectrometry analysis using a reversed-phase analytical column (Acquity UPLC® C18, Waters) operating in line with a XEVO TQ-S triple quadrupole mass spectrometer (Waters) in MRM mode. Two different mass transitions were measured per analyte and standard and the concentrations were calculated by relating endogenous signals to internal standard signals under consideration of the corresponding response factors determined by calibration curves in human blank plasma.

| SMILES | change in the AA2R (aldosterone pmol/L divided by equilibrium Ang II pmol/L) [1] | change in the ARR (aldosterone ng/L divided by plasma active renin concentration ng/L) [2] |
| --- | --- | --- |
| COCCCOc1cc(C[C@@H](C[C@H](N)[C@@H](O)C[C@H](C(=O)NCC(C)(C)C(N)=O)C(C)C)C(C)C)ccc1OC [Aliskiren] | did not significantly affect | highly significant and profound decrease |
| CCOC(=O)[C@H](CCc1ccccc1)N[C@@H](C)C(=O)N1CCC[C@H]1C(=O)O [Enalapril] | did not significantly affect | highly significant and profound decrease |
| CCCCc1nc(Cl)c(CO)n1Cc1ccc(-c2ccccc2-c2nn[nH]n2)cc1 [Losartan] | significant decrease | highly significant and profound decrease |
